Experiment [1] deals with pAKT in MCF7 (measure of mTORC2 activity). Briefly: AlphaLISA Ultra pAKT assay. It counts as cell-based. The conditions noted are these: MCF-7 cells, 2 hours compound incubation. How it is done:
(§1) Assay Protocol: • 1. […] 16,000˜20,000 cells will be seeded in 36 μL medium per well. • 2. Change the culture medium with fresh medium and incubate for another 2 hours. • 3. Add 12 μL (4×) compounds into the cell plate by HAMILTON. Final DMSO concentration is 0.5%. Incubate for 2 hours. • 4. Aspirate 38 μL by HAMILTON, 10 μL rest per well. • 5. Add 10 μL 2× lysis buffer using HAMILTON; total volume in wells is 20 μL. Allow cells to shake for 30 min. Cover plate by plastic foil and store plate at −80° C. up to analysis. • 6. […] Add 5 ul acceptor beads into assay plate and incubation for 2 hours • 8. Add 5 ul donor beads and incubation for 2 hours • 9. Count the plate by EnSpire Multimode Plate Reader
(Alpha assays give light when donor and acceptor beads are brought close together.)

The test system of experiment [2] is pS6K1 in MCF7 (measure of mTORC1 activity). Description: AlphaLISA Ultra pS6K1 assay. The conditions noted are these: MCF-7 cells, 2 hours compound incubation. It is filed as cell-based. How it is done: as §1, with “12,000˜16,000” for “16,000˜20,000”, “(4λ)” for “(4×)”

A value given as a limit tells only on which side of the number the result lay.

Usually IC50 stands for the concentration at which inhibition is half-maximal. Lower therefore signals higher potency. Regarding `COCCn1cc(CN2CCN(c3ccccc3Cl)CC2)cc1C(=O)N1CCN(c2ccc(F)cc2)CC1` [Example I-140], the concentration for half-maximal inhibition (IC50) is over 10000 nM in experiment [1] (Homo sapiens, MCF7, 2 h) and 1000 to 3000 nM in experiment [2] (Homo sapiens, MCF7, 2 h).
For `Cc1c(CN2CCN(c3ccccc3Cl)CC2)cc(C(=O)N2CCN(c3ccc(F)c(C#N)c3)CC2)n1C` [Example I-105, 5-(4-(4-((4-(2-Chlorophenyl)piperazin-1-yl)methyl)-1,5-dimethyl-1H-pyrrole-2-carbonyl)piperazin-1-yl)-2-fluorobenzonitrile] the same measures were over 3000 nM and 10 to 1000 nM.
For `Cc1c(CN2CCN(c3ccccc3Cl)CC2)cc(C(=O)N2CCN(c3cc(F)c(F)c(F)c3)C[C@@H]2C)n1C` [Example I-89, (S)-(4-((4-(2-Chlorophenyl)piperazin-1-yl)methyl)-1,5-dimethyl-1H-pyrrol-2-yl)(2-methyl-4-(3,4,5-trifluorophenyl)piperazin-1-yl)methanone] the same measures were over 10000 nM and 3000 to 10000 nM.
On to `COCCn1cc(CN2CCN(c3ccccc3C#N)CC2)cc1C(=O)N1CCN(c2ccccc2OC)CC1` [Example I-150], for which the IC50 was over 10000 nM in experiment [1] (Homo sapiens, MCF7, 2 h) and 3000 to 10000 nM in experiment [2] (Homo sapiens, MCF7, 2 h).
For `Cc1c(CN2CCN(c3ccccc3Cl)CC2)cc(C(=O)N2CCCN(c3cccc(C#N)c3)CC2)n1C` [Example I-40, 3-(4-(4-((4-(2-chlorophenyl)piperazin-1-yl)methyl)-1,5-dimethyl-1H-pyrrole-2-carbonyl)-1,4-diazepan-1-yl)benzonitrile] the same measures were over 10000 nM and 3000 to 10000 nM.
Take `Cc1c(CN2CCN(c3ncccc3Cl)CC2)cc(C(=O)N2CCN(c3ccccn3)CC2)n1C` [Example I-2]: the half-maximal inhibitory concentration (IC50) is over 10000 nM in experiment [1] and 1000 to 3000 nM in experiment [2].
For the compound `Cc1c(CN2CCN(c3ccccc3Cl)CC2)cc(C(=O)N2CCN(c3ccc(F)c(F)c3)C[C@@H]2C)n1C` [Example I-116, (S)-(4-((4-(2-chlorophenyl)piperazin-1-yl)methyl)-1,5-dimethyl-1H-pyrrol-2-yl)(4-(3,4-difluorophenyl)-2-methylpiperazin-1-yl)methanone], the IC50 was over 1000 nM in experiment [1] (Homo sapiens, MCF7, 2 h) and 10 to 1000 nM in experiment [2] (Homo sapiens, MCF7, 2 h).
In the same order, the values of `COCCn1cc(CN2CCN(c3ccccc3Cl)CC2)cc1C(=O)N1CCN(c2ccccc2F)CC1` [Example I-141] are over 10000 nM and 3000 to 10000 nM.
In the same order, the values of `Cn1cc(CN2CCN(c3ccccc3C(F)(F)F)CC2)cc1C(=O)N1CCN(c2ccccc2)CC1` [Example I-126, 1-{[1-Methyl-5-(4-phenylpiperazine-1-carbonyl)-1H-pyrrol-3-yl]methyl}-4-[2-(trifluoromethyl)phenyl]piperazine] are over 10000 nM and 3000 to 10000 nM.
In the same order, the values of `Cc1c(CN2CCN(c3ccccc3Cl)CC2)cc(C(=O)N2CCN(c3cc(F)ccc3C#N)C[C@@H]2C)n1C` [Example I-86, (S)-2-(4-(4-((4-(2-chlorophenyl)piperazin-1-yl)methyl)-1,5-dimethyl-1H-pyrrole-2-carbonyl)-3-methylpiperazin-1-yl)-4-fluorobenzonitrile] are over 10000 nM and 10 to 1000 nM.
Consider `C[C@@H]1CN(Cc2cc(C(=O)N3CCN(c4ccc(F)cc4)CC3)n(C)c2)CCN1c1ccccc1Cl` [Example I-103], for which the IC50 in experiment [1] (Homo sapiens, MCF7, 2 h) is over 10000 nM; in experiment [2] (Homo sapiens, MCF7, 2 h), 1000 to 3000 nM.
For `C[C@@H]1CN(c2ccccc2)CCN1C(=O)c1cc(CN2CCN(c3ccccc3Cl)CC2)cn1C` [Example I-137, (R)-(4-((4-(2-chlorophenyl)piperazin-1-yl)methyl)-1-methyl-1H-pyrrol-2-yl)(2-methyl-4-phenylpiperazin-1-yl)methanone] the same measures were over 10000 nM and 3000 to 10000 nM.
For `C[C@H]1CN(c2ccccc2)CCN1C(=O)c1cc(CN2CCN(c3ccccc3Cl)CC2)cn1C` [Example I-136, (S)-(4-((4-(2-chlorophenyl)piperazin-1-yl)methyl)-1-methyl-1H-pyrrol-2-yl)(2-methyl-4-phenylpiperazin-1-yl)methanone] the same measures were over 3000 nM and 1000 to 3000 nM.
